From patent US6248309A, “Gums containing antimicrobial agents” (priority 1999, dated 2001)

Columns and labels:
[1] = system: Streptococcus mutans (SM); assay: MIC of individual antimicrobial agents (Example 4); assay type: cell-based, Streptococcus mutans ATCC 25175; settings: Table 18
Text: (§1) The following example illustrates how antimicrobial agents useful in gum compositions of the present invention retard or prevent the growth of dental plaque bacteria present in the oral cavity. In addition, the example illustrates the lowest concentration of various antimicrobial agents that will inhibit visible in vitro growth of a particular bacteria.
(§2) The assay used a microtiter plate to dilute the antimicrobial agent to varying concentrations in order to determine the MIC.
(§3) A bacteria culture was incubated overnight at 37° C. Prior to dilution of the antimicrobial agents as described below, the bacterial culture was spun down at 2000 rpm into a pellet and resuspended in a solution of buffered phosphate. […]
(§4) The 96-well plate was incubated under conditions that varied depending on the particular microorganism. […] Following 48 hours of incubation, the incubated plate was read for microbial growth with a spectraphotometer by optical density (OD). The well containing the lowest dilution achievable with a spectraphotometer reading below 0.05 OD (i.e., no detectable microbial growth) was considered representative for the antimicrobial agent. The MIC for the agent was determined by accounting for the starting stock solution concentration and the resulting dilutions in the 96-well plate. […]

[2] = system: Streptococcus sanguis (SS); assay: MIC of individual antimicrobial agents (Example 4); assay type: cell-based, Streptococcus sanguis ATCC 49295; settings: Table 18
Text: as §1, §2, §3, §4

[3] = system: Porphyromonas gingivalis (PG); assay: MIC of individual antimicrobial agents (Example 4); assay type: cell-based, Porphyromonas gingivalis ATCC 33277; settings: Table 18
Text: as §1, §2, §3, §4

[4] = system: Porphyromonas gingivalis (PG); assay: MIC of agents alone and in two-agent combination (Example 1); assay type: cell-based, Porphyromonas gingivalis ATCC 33277; settings: concentration of chloramphenicol (agent A)
Experimental: (§5) The following example illustrates how the MIC of individual antimicrobial agents that are combined were determined and also illustrates how the MIC of the antimicrobial agents in combination were determined.
(§6) A microtiter plate was used to dilute the antimicrobial agents to varying concentrations in order to determine the MIC of those antimicrobial agents alone and the MIC of the agents when combined.
(§7) A bacterial culture was incubated at 37° C. Prior to the dilution of the antimicrobial agents as described below, the bacterial culture was spun down at 2,000 rpm into a pellet and resuspended in a solution of buffered phosphate. The innoculum was normalized with a spectrophotometer to an optical density at 550 nanometers of between 0.180-0.220 (equivalent to 5.0×10^7 colony forming units, CFU per milliliter). The innoculum was set aside until the completion of the antimicrobial agent dilution. […]
(§8) Following 48 hours of incubation, the incubated plate was read for microbial growth with a spectrophotometer by optical density (OD). The well containing the lowest dilution achievable for each agent with a spectrophotometer reading below 0.05 OD (i.e., no detectable microbial growth) was considered representative for the combination. The MIC for each agent in the combination was determined by accounting for the starting stock solution concentration and the resulting dilutions in the 96-well plate. […]

[5] = system: Fusobacterium nucleatum (FN); assay: as above; assay type: cell-based, Fusobacterium nucleatum ATCC 10933; settings: concentration of chloramphenicol (agent A)
Experimental: as §5, §6, §7, §8

[6] = system: Streptococcus mutans (SM); assay: as above; assay type: cell-based, Streptococcus mutans ATCC 25175; settings: concentration of chloramphenicol (agent A)
Experimental: as §5, §6, §7, §8

[7] = system: Actinomyces viscosus (AV); assay: MIC of individual antimicrobial agents (Example 4); assay type: cell-based, Actinomyces viscosus ATCC 19246; settings: Table 18
Text: as §1, §2, §3, §4

[8] = system: Fusobacterium nucleatum (FN); assay: MIC of individual antimicrobial agents (Example 4); assay type: cell-based, Fusobacterium nucleatum ATCC 10933; settings: Table 18
Text: as §1, §2, §3, §4

[9] = system: Actinomyces viscosus (AV); assay: MIC of agents alone and in two-agent combination (Example 1); assay type: cell-based, Actinomyces viscosus ATCC 19246; settings: concentration of chloramphenicol (agent A)
Experimental: as §5, §6, §7, §8

[10] = system: Streptococcus sanguis (SS); assay: as above; assay type: cell-based, Streptococcus sanguis ATCC 49295; settings: concentration of chloramphenicol (agent A)
Experimental: as §5, §6, §7, §8

`O=C(NC(CO)C(O)c1ccc([N+](=O)[O-])cc1)C(Cl)Cl` (stereo not shown) [CR1, 2,2-dichloro-N-[2-hydroxyl-1-(hydroxymethyl)-2-(4-nitrophenyl)ethyl]acetamide] showed an MIC [1] of 3.1 µg/mL, an MIC [2] of 3.1 µg/mL and an MIC [3] of 6.3 µg/mL. For the same compound, the “MIC of Chloramphenicol alone and when combined with Agent B” value (from here on “MIC … with Agent B”) [4] was 6.9 µg/mL, the “MIC … with Agent B” value [5] was 1.8 µg/mL and the “MIC … with Agent B” value [6] was 5.2 µg/mL. The MIC [7] was 3.1 µg/mL, the MIC [8] was 3.1 µg/mL and the “MIC … with Agent B” value [9] was 5.4 µg/mL. For the same compound, the “MIC … with Agent B” value [10] was 3.2 µg/mL.
